Results taken from patent EP4768485A1 (Guangzhou Baiyunshan Pharmaceutical Holdings Co., Ltd. …, priority 2023, dated 2025).
In brackets after ≈: the same amount, converted by molar mass. Read-outs that look alike come from different tables or passages of the source.

What was measured:
[1] = system: Klebsiella pneumoniae ATCC BAA 2472; assay: MIC, agar plate two-fold dilution; type: cell-based
Procedure: (§1) In this test example, the minimum inhibitory concentration (MIC) of the compound was determined.
(§2) The test drug concentration was set to be within a range of 0.008 µg/mL to 128 µg/mL in a two-fold serial dilution using an agar plate two-fold dilution method. The sample was dissolved in DMSO to prepare a 2 mL solution with a concentration of 1.92 mg/mL. The control group was prepared in sterile distilled water to obtain a concentration of 1.92 mg/mL. 1 mL of the prepared drug solution was added to a sterile culture dish, followed by addition of 14 mL of MHA culture medium at approximately 60°C. After thorough mixing, 1 mL of sterilized distilled water was added for two-fold dilution, resulting in a final drug concentration of 64 µg/mL, 32 µg/mL, 16 µg/mL, 8 µg/mL, 4 µg/mL, 2 µg/mL, 1 µg/mL, 0.5 µg/mL, 0.25 µg/mL, 0.125 µg/mL, 0.06 µg/mL, 0.03 µg/mL, 0.015 µg/mL, and 0.008 µg/mL (wherein the final concentrations of samples 2, 4, and 9 were diluted downward starting from 128 µg/mL), and set aside for later use. The prepared bacterial suspension was inoculated onto drug-containing MHA culture medium with a multi-point inoculator, with an inoculation volume of approximately 10^4 CFU per point. A sterile control group (1 mL DMSO + 14 mL MHA culture medium and 1 mL sterile distilled water + 14 mL MHA culture medium) was set up.

[2] = system: Acinetobacter baumannii ARLG 1852; assay: MIC, agar plate two-fold dilution; type: cell-based
Procedure: as §1, §2

[3] = system: Escherichia coli. ATCC 25923; assay: MIC, agar plate two-fold dilution; type: cell-based; conditions: MHA, 37°C, 16-20 hours; for MIC: Escherichia coli, ATCC25923, read-out: Minimum Inhibitory Concentration MIC, Escherichia coli. ATCC 25923; for Minimum Inhibitory Concentration MIC: Escherichia coli. ATCC 25923
Procedure: as §1, §2

[4] = target: EcFabI (Escherichia coli, UniProt P0AEK4); assay: FabI enzymatic activity by NADH/NADPH oxidation (fluorescence), EcFabI; type: biochemical; conditions: 9 nmol/L EcFabI; trans-dodecenoyl-CoA and NADH; pH 6.5
Chain of EcFabI (P0AEK4 whole entry): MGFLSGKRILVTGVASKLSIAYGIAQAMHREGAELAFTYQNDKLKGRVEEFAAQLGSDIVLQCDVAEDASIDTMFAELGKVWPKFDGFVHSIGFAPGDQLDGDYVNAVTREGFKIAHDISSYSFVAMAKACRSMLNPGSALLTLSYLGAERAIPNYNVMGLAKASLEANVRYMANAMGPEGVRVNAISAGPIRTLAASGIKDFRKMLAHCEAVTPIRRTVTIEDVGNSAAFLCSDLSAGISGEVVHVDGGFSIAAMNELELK
Procedure: (§4) In this test example, the enzymatic activity was evaluated by monitoring the oxidation of cofactor NADH/NADPH using a microplate reader.
(§5) The compound was dissolved in DMSO and added to a 384-well plate using ECHO665. Serial 3-fold or 4-fold dilutions were prepared to generate 10 dose points with two replicates per concentration, ensuring a final DMSO concentration 1% in each reaction well. Then, a FabI protein solution was added, and the protein was prepared in a buffer containing 100 mmol/L PBS, 0.05% Tween-20, and 150 mmol/L NaCl (pH 6.5), so that the final concentrations of SaFabI and EcFabI proteins were 15 nmol/L and 9 nmol/L, respectively. The prepared 5 µL of 15 nmol/L SaFabI and 9 nmol/L EcFabI were added to a 384-well assay plate, and centrifuged at 1000 rpm for 1 minute. Then, the plate was pre-incubated in a temperature-controlled shaker at 30 °C for 20 minutes. Moreover, substrates trans-octenoyl-CoA, NADPH, trans-dodecenoyl-CoA, and NADH were diluted in a buffer containing 100 mmol/L PBS, 0.05% Tween-20, and 15 0 mmol/L NaCl (pH 6.5) respectively, and their concentrations were adjusted to 300 µmol/L, 300 µmol/L, 600 µmol/L, and 150 µmol/L, respectively. For SaFabI, 5 µL of 300 µmol/L trans-octenoyl-CoA and 5 µL of 300 µmol/L NADPH were added to initiate the reaction. Immediately after initiation, the plate was placed into the microplate reader, and fluorescence signals (Ex 340 nm/Em 460 nm) were recorded every 0.5 minutes for at least 10 minutes. Similarly, 5 µL of 600 µmol/L trans-dodecenoyl-CoA and 5 µL of 150 µmol/L NADH were added to initiate reaction of EcFabI. Immediately after initiation, the plate was immediately placed into the microplate reader, and fluorescence signals (Ex 340 nm/Em 460 nm) were recorded every 0.5 minutes for at least 10 minutes. The reaction rate (fluorescence signal per minute) of each well was calculated from the fluorescence values. The inhibitory effect of the compound on the protein was then calculated based on the reaction rate, and the IC50 value for inhibition of enzyme activity by the compound was determined by fitting the data using GraphPad Prism 6 with log (inhibitor) vs. response variable slope model. The fitting equation is: Y=Bottom + (Top-Bottom)/(1+10^((LogIC50-X)*HillSlope)), wherein Y represents the known percentage of residual enzyme activity, and X represents the known Log concentration of the compound.

[5] = system: MSSA ATCC 29213; assay: MIC, agar plate two-fold dilution; type: cell-based, Staphylococcus aureus; conditions: MHA, 37°C, 16-20 hours; for MIC: Staphylococcus aureus
Procedure: as §1, §2

[6] = system: VRSA VRS 1; assay: MIC, agar plate two-fold dilution; type: cell-based, Staphylococcus aureus; conditions: MHA, 37°C, 16-20 hours; for MIC: Staphylococcus aureus
Procedure: as §1, §2

[7] = system: MRSA NRS 384; assay: MIC, agar plate two-fold dilution; type: cell-based, Staphylococcus aureus; conditions: MHA, 37°C, 16-20 hours; for MIC: Staphylococcus aureus
Procedure: as §1, §2

[8] = target: SaFabI (Staphylococcus aureus, UniProt Q6GI75); assay: FabI enzymatic activity by NADH/NADPH oxidation (fluorescence), SaFabI; conditions: SaFabI IC50, 15 nmol/L SaFabI; trans-octenoyl-CoA and NADPH; pH 6.5
Chain of SaFabI (Q6GI75 whole entry): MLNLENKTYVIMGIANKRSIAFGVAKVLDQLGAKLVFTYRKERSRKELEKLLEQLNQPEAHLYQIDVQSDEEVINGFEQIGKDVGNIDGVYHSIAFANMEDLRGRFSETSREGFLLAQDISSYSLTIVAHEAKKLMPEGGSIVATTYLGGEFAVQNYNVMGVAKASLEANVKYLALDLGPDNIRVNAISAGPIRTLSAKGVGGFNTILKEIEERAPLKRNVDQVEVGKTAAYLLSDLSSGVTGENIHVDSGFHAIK
Procedure: as §4, §5

[9] = system: methicillin-resistant S. aureus (NRS384); assay: Systemic infection model in mice, in vivo efficacy; design: species or system Balb/c mice; conditions: single-dose oral administration, 0.3, 1.0, 3.0 mg/Kg; vs linezolid 3 mg/Kg and Debio-1450
Procedure: In this test experiment, the in vivo efficacy of the compound in mice was evaluated using a systemic infection model.
Ninety healthy adult male Balb/c mice (purchased from Beijing Vital River Laboratory Animal Technology Co., Ltd. , China) were selected, and divided into 10 groups, including one negative control group (9 mice, inoculated with bacteria and given vehicle), one positive control group (9 mice, vancomycin), one linezolid test group (9 mice), three test groups of high, medium, and low doses (3 ×9 mice) for compound 1a, three test groups of high, medium, and low doses (3 ×9 mice) for Debio-1450, and one test group for Debio-1452 (9 mice). All mice were acclimatized for 3-4 days before testing. The strain inoculated in this test example was methicillin-resistant S. aureus (NRS384), which was administered via tail vein injection at a dose of 1.0 × 10^8 CFU/mouse. The compound was administered 0.5 h post inoculation with the strain. The compound 1a and Debio-1452 were formulated in a vehicle containing 5% DMSO, 30% PEG400, and 65% H2O, while Debio-1450 was formulated in an isotonic glucose solution (freshly prepared) as the vehicle and was administered orally as a single dose. The specific dosing regimen is shown in Table 5: Table 5 Dosing Regimen for Systemic Infection Efficacy Model

[10] = Pharmacokinetic study in rats; type: in vivo, Sprague-Dawley (SD) rats; conditions: oral gavage
Procedure: In this test experiment, a pharmacokinetic study of the compound in rats was conducted.
Twelve healthy adult female Sprague-Dawley (SD) rats (purchased from Beijing Vital River Laboratory Animal Technology Co., Ltd., China) with an average body weight of about 180-220 g were selected, and divided into four groups (n=3 per group). Two groups were administered via tail vein injection, while the other two groups were administered via oral gavage. Compound 1b was dissolved in a vehicle containing 5% DMSO, 30% PEG400, and 65% H2O, and Debio-1450 was dissolved in physiological saline, both of which were formed into a stable clear solution for later use. Animals were fasted for 12 hours before administration and resumed normal feeding 2 hours post administration. Then, blood samples were collected through the jugular vein at the following time points: 0.083 h, 0.25 h, 0.5 h, 1 h, 2 h, 4 h, 8 h, 24 h (tail vein injection) and 0.25 h, 0.5 h, 1 h, 2 h, 4 h, 8 h, 24 h (oral gavage administration), respectively, with a blood collection volume of about 200-400 µL. Whole blood collected at each time point was immediately transferred into an anticoagulant tube containing K2EDTA, then stored on ice in an insulated container. All samples were centrifuged within 15 minutes at 4600 r/min and 4°C for 5 minutes to separate plasma. The concentration of the compound in the plasma of each rat was determined using LC-MS/MS method, and the pharmacokinetic parameter was calculated from the drug concentration-time profile. Table 4 Oral Pharmacokinetic Parameters of Compound 1b/Debio-1450 In Rats

[11] = system: Staphylococcus hominis ATCC27844; assay: MIC, antibacterial spectrum; type: cell-based
Procedure: as §2
(§3) Referring to the minimum inhibitory concentration test method mentioned above, the antibacterial spectrum of compound 1b was tested. […] Table 3 Antibacterial Spectrum Testing of Compound 1b MIC (µg/mL)

[12] = system: Staphylococcus haemolyticus CICC23976; assay: MIC, antibacterial spectrum; type: cell-based
Procedure: as §2, §3

[13] = system: Klebsiella pneumoniae ATCC2055; assay: MIC, antibacterial spectrum; type: cell-based
Procedure: as §2, §3

[14] = system: Acinetobacter baumannii ATCC17979; assay: MIC, antibacterial spectrum; type: cell-based
Procedure: as §2, §3

[15] = system: Enterobacter cloacae ATCC13047; assay: MIC, antibacterial spectrum; type: cell-based
Procedure: as §2, §3

[16] = system: Enterococcus faecalis ATCC51299; assay: MIC, antibacterial spectrum; type: cell-based
Procedure: as §2, §3

[17] = system: Staphylococcus epidermidis ATCC35983; assay: MIC, antibacterial spectrum; type: cell-based
Procedure: as §2, §3

[18] = system: Salmonella Typhi CMCC12055; assay: MIC, antibacterial spectrum; type: cell-based; conditions: Salmonella enterica
Procedure: as §2, §3

[19] = system: Pseudomonas aeruginosa ATCC12055; assay: MIC, antibacterial spectrum; type: cell-based
Procedure: as §2, §3

[20] = system: Neisseria gonorrhoeae ATCC49226; assay: MIC, antibacterial spectrum; type: cell-based
Procedure: as §2, §3

[21] = system: Moraxella catarrhalis ATCC43617; assay: MIC, antibacterial spectrum; type: cell-based
Procedure: as §2, §3

[22] = system: Haemophilus influenzae ATCC29213; assay: MIC, antibacterial spectrum; type: cell-based
Procedure: as §2, §3

[23] = system: Escherichia coli.; assay: MIC, agar plate two-fold dilution; type: cell-based; conditions: ATCC25923; Escherichia coli. ATCC 25923; MHA, 37°C, 16-20 hours; read-out: Minimum Inhibitory Concentration MIC
Procedure: as §1, §2

[24] = Klebsiella pneumoniae, BAA2472, read-out: Minimum Inhibitory Concentration MIC
[25] = Acinetobacter baumannii, ARLG1852, read-out: Minimum Inhibitory Concentration MIC
[26] = ATCC29213|MSSA, read-out: Minimum Inhibitory Concentration MIC, MSSA ATCC 29213
[27] = VRSA, read-out: Minimum Inhibitory Concentration MIC, VRSA VRS 1
[28] = MRSA|NRS384, read-out: Minimum Inhibitory Concentration MIC, MRSA NRS 384
[29] = Klebsiella pneumoniae ATCC BAA 2472, MHA, 37°C, 16-20 hours
[30] = Acinetobacter baumannii ARLG 1852, MHA, 37°C, 16-20 hours
[31] = female, Sprague-Dawley, rat, in vivo, 15 mg/Kg, plasma
[32] = female, Sprague-Dawley, rat, 10 mg/Kg, plasma

Row | SMILES | MIC [1, 24] [µg/mL] | MIC [2, 25] [µg/mL] | MIC [3] [µg/mL] | IC50 [4] [nM] | MIC [5, 26] [µg/mL] | MIC [7, 28] [µg/mL] | IC50 [8] [nM] | Minimum Inhibitory Concentration MIC [1, 29] [µg/mL] | Minimum Inhibitory Concentration MIC [2, 30] [µg/mL] | Minimum Inhibitory Concentration MIC [3] [µg/mL] | Minimum Inhibitory Concentration MIC ([5]; MSSA ATCC 29213) [µg/mL] | Minimum Inhibitory Concentration MIC ([6]; VRSA VRS 1) [µg/mL] | Minimum Inhibitory Concentration MIC ([7]; MRSA NRS 384) [µg/mL] | also measured
1 | Cc1c(CN(C)C(=O)/C=C/c2cnc3c(c2)C2CC2(N)C(=O)N3)oc2c(C3CC3)cccc12 (single isomer, unassigned) [Compound 2a] | 32 (≈ 72.3 µM) | > 32 | 8 (≈ 18.1 µM) | 6 | < 0.008 | < 0.008 | 10 | – | – | – | – | – | – | MIC [6, 27]: 0.06 µg/mL (≈ 0.136 µM)
2 | Cc1c(CN(C)C(=O)/C=C/c2cnc3c(c2)C2CC2(N)C(=O)N3)oc2c(C3CC3)cccc12 (single isomer, unassigned) [Compound 2b] | – | – | – | 13 | – | – | 12 | 32 | >32 | >16 | 0.016 | 0.06 | <0.008 | –
3 | Cc1c(CN(C)C(=O)/C=C/c2cnc3c(c2)C2CC2(N)C(=O)N3)oc2c(C)cccc12 (stereo not drawn) [Compound 1a] | 16 (≈ 38.4 µM) | > 32 | 4 (≈ 9.6 µM) | 4 | < 0.008 | < 0.008 | 5 | – | – | – | – | 0.25 | – | efficacy compared with the reference compounds [9]: markedly superior efficacy to linezolid and better efficacy than Debio-1450
4 | Cc1c(CN(C)C(=O)/C=C/c2cnc3c(c2)C2CC2(N)C(=O)N3)oc2c(C)cccc12 (stereo not drawn) [Compound 1b] | – | – | – | 5 | – | – | 12 | 16 | >32 | 4 | <0.008 | 0.12 | <0.008 | Tmax [10, 31]: 1.5 h; half-life [10, 31]: 2.57 h; F ([10]; 15 mg/Kg vs tail vein injection): 110%; antibacterial activity (in words) ([11]; Staphylococcus hominis): excellent antibacterial activity; MIC ([11]; Staphylococcus hominis ATCC27844): < 0.06 µg/mL; MIC [12]: < 0.06 µg/mL; MIC [13]: 8 µg/mL (≈ 19.2 µM); MIC [14]: 32 µg/mL (≈ 76.8 µM); MIC [15]: 8 µg/mL (≈ 19.2 µM); MIC [16]: > 64 µg/mL; antibacterial activity (in words) ([17]; Staphylococcus epidermidis): excellent antibacterial activity; MIC ([17]; Staphylococcus epidermidis ATCC35983): < 0.06 µg/mL; MIC [18]: 4 µg/mL (≈ 9.6 µM); MIC [19]: > 64 µg/mL; MIC [20]: 8 µg/mL (≈ 19.2 µM); antibacterial activity (in words) ([21]; Moraxella catarrhalis): excellent antibacterial activity; MIC ([21]; Moraxella catarrhalis ATCC43617): < 0.06 µg/mL; antibacterial activity (in words) [22]: good antibacterial activity; MIC ([22]; ATCC29213): 0.25 µg/mL (≈ 0.6 µM)
5 | Cc1c(CN(C)C(=O)/C=C/c2cnc3c(c2)C2CC2(N)C(=O)N3)oc2ccccc12 (stereo not drawn) [Compound 3a] | > 32 | > 32 | 8 (≈ 19.9 µM) | 7 | 0.03 (≈ 0.0745 µM) | 0.03 (≈ 0.0745 µM) | 10 | – | – | – | – | – | – | MIC [6, 27]: 0.5 µg/mL (≈ 1.24 µM)
6 | Cc1c(CN(C)C(=O)/C=C/c2cnc3c(c2)C2CC2(N)C(=O)N3)oc2ccccc12 (stereo not drawn) [Compound 3b] | – | – | – | – | – | – | – | >32 | >32 | 8 | 0.016 | 0.25 | 0.016 | –
7 | Cc1c(CN(C)C(=O)/C=C/c2cnc3c(c2)CCC(=O)N3COP(=O)(O)O)oc2ccccc12 [Debio-1450] | – | – | – | – | – | – | – | – | – | – | – | – | – | Cmax [10, 32]: 2210 ng/mL; Tmax [10, 32]: 0.67 h; half-life [10, 32]: 4.2 h; F ([10]; 10 mg/Kg vs tail vein injection): 97%
8 | Cc1c(CN(C)C(=O)/C=C/c2cnc3c(c2)CCC(=O)N3)oc2ccccc12 [Debio-1452, reference compound] | – | – | – | 3 | – | – | 2 | – | – | – | – | – | – | MIC [23]: 4 µg/mL (≈ 10.7 µM); MIC ([1]; BAA2472, Klebsiella pneumoniae ATCC BAA 2472, MHA, 37°C, 16-20 hours, read-out: Minimum Inhibitory Concentration MIC): > 8 µg/mL; MIC ([2]; ARLG1852, Acinetobacter baumannii ARLG 1852, MHA, 37°C, 16-20 hours, read-out: Minimum Inhibitory Concentration MIC): > 8 µg/mL; MIC ([5]; MSSA ATCC 29213, read-out: Minimum Inhibitory Concentration MIC): < 0.008 µg/mL; MIC ([6]; VRSA VRS 1, read-out: Minimum Inhibitory Concentration MIC): 0.12 µg/mL (≈ 0.32 µM); MIC ([7]; MRSA NRS 384, read-out: Minimum Inhibitory Concentration MIC): < 0.008 µg/mL
